# Laboratory results taken from US11413278B2, “Compounds and methods for promoting stress resistance” (priority 2015, dated 2022).
# Read-outs that look alike come from different tables or passages of the source.
# Legend:
# [1] = tested on: C. elegans; test: C. elegans lifespan assays (liquid and plate); format: in vivo, Caenorhabditis elegans; settings: for ILS at 60 µM / ILS at 66 µM: Caenorhabditis elegans; for O = Life span- extending scores in worms: score scale 0 to 2, 4 to 6 independent trials; for M = Lifespan-extending scores in worms: summary score
# [2] = tested on: phosphorylated γH2A.X and TP53BP1; test: DNA damage marker analysis (immuno-staining); settings: for activity at 10 µM: Homo sapiens, WI-38, 24 h; for P = Potential DNA-damaging / R = Potential DNA damaging: human, 24 h
# Description: WI-38 cells were seeded on 96-well plates and cultured for 24 hrs and then incubated with small molecules for another 24 hrs. As the positive control to damage DNA, H2O2 was supplemented at 700 μM final concentration for the last 3 hrs. Cells were washed with phosphate-buffered saline (PBS), fixed with 4% paraformaldehyde and then blocked with 5% normal goat serum (Cell Signaling), plus 0.3% Triton X-100, for 1 hr. Primary antibody cocktail (rabbit anti-phospho-histone γH2A.X (Ser-139), 1:100; anti-phospho-TP53BP1 (Ser-1778), 1:100), prepared in 1% BSA and 0.3% Triton X-100/PBS, was then introduced and incubated overnight at 4 C. Next day, samples were washed with PBS and further incubated with fluorophore-conjugated secondary antibody (1:1,000) for 1 hr in the dark. Samples were then washed and incubated with DAPI dye (Life Technologies) (4 μg/ml final concentration) for the last 10 minutes. Images were collected on an INCell Analyzer 2000 (GE) and analyzed with the Developer software.
# WI-38 cells were seeded (˜8,000 cells per well) on 96-well plates and cultured for 24 hrs and then incubated with small molecules for another 24 hrs. Doxorubicin (300 nM, 24 hrs) and H2O2 (700 μM, 3 hrs) were also introduced as the positive controls to damage DNA. Cells were washed with phosphate-buffered saline (PBS), fixed with 4% paraformaldehyde for 30 min and then blocked with 5% normal goat serum (Cell Signaling) and 0.3% Triton X-100 for 1 hr. Primary antibody cocktail (Cell Signaling, rabbit anti-phospho-histone γH2A.X (Ser-139), 1:100; anti-phospho-TP53BP1 (Ser-1778), 1:100) was prepared in PBS with 1% BSA and 0.3% Triton X-100 and incubated overnight at 4° C. Next day, samples were washed with PBS and further incubated with fluorophore-conjugated secondary antibody (1:1,000) for 1 hr in dark. Samples were then washed and incubated with DAPI dye (Life Technologies) (4 μg/ml final concentration) for 30 minutes. Images were collected on the INCell Analyzer 2000 (10× objective) and analyzed with the Developer Toolbox.
# [3] = target: T1, human PARP1 (Homo sapiens, UniProt P09874); test: PARP inhibitor assay (HT Fluorescent Homogeneous PARP Inhibition Assay Kit); format: biochemical; settings: score
# T1 construct: purchased Trevigen
# T1 sequence (P09874 whole entry): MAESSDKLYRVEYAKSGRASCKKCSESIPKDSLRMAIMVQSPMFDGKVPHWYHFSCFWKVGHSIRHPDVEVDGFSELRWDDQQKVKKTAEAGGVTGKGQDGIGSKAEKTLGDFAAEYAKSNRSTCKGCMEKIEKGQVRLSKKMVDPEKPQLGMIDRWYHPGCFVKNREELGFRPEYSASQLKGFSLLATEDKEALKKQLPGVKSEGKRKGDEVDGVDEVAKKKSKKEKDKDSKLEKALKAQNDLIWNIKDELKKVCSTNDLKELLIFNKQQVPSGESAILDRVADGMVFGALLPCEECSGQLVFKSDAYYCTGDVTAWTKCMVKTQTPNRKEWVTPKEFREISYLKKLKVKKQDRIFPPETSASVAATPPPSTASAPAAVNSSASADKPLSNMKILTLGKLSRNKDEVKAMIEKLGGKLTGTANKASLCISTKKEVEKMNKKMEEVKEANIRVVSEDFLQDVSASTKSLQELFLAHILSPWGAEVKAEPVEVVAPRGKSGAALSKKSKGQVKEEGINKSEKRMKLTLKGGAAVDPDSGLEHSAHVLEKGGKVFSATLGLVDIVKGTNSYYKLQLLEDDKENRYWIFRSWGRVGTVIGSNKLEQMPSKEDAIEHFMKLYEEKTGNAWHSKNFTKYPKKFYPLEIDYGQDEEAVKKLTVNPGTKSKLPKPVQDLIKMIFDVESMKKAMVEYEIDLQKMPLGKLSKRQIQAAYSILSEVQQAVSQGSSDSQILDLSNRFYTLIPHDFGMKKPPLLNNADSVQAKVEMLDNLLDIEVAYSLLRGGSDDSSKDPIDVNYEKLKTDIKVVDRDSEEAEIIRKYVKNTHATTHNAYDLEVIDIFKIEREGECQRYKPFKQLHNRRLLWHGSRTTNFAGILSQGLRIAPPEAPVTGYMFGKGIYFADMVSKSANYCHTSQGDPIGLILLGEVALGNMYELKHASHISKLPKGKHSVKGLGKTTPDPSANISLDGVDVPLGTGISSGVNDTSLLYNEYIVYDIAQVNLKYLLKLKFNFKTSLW
# In short: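 Compounds (10 μM final) incubated 30 min, room temperature, dark, with human PARP1, nicotinamide adenine dinucleotide and activated DNA. Fluorescent signal generated by 1 hr cycling with diaphorase and resazurin, then reaction stopped.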
# [4] = tested on: WI-38 cells; settings: for No H2O2 stress treatment, at 10 uM (fold change): normalized ATP measurement; for Assay 1: H2O2-resistant: YES/NO, if NO, possibly due to repeated freezing/thawing of stocks
# [5] = tested on: PC12 cells expressing poly(Q)103-Htt-EGFP; test: Poly(Q) toxicity & viability analysis (cellular model of Huntington's disease); format: cell-based, rat; settings: for M = Huntington's poly-Q toxicity attenuation: score; for K = Huntington's poly-Q toxicity attenuation: summary score
# Description: Viability assays were performed as described before (Aiken et al., 2004). PC12 cells that stably express the inducible poly(Q)103-Htt-EGFP were grown in culture. […] Cell viability was analyzed 48 hrs later by measuring ATP content with CellTiter-Glo.
# Toxic protein aggregation is a key feature of many age-related neurodegenerative diseases, including Alzheimer's and Huntington's disease (Caughey and Lansbury, 2003; Ross and Poirier, 2004). A number of animal models (Phillips et al., 2009) and cell models (Schlachetzki et al., 2013) have been established to study these diseases. For this purpose, PC12 rat pheochromocytoma cells display neuronal features and produce neurotransmitters and have been used extensively to study neuronal phenotypes, including synaptic transmission and neurological diseases. […] In this model, induced expression of poly(Q)103-Htt-EGFP could lead to the formation of aggregates and exert substantial toxicity in cells.
# [6] = tested on: WI-38 cells; test: MMS resistance assay; format: cell-based, human; settings: for fold induction at 10 µM: Homo sapiens, 12 h, normalized ATP measurement
# In short: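 Resistance to CdCl2 or MMS stress (12 h exposure) was scored in WI-38 fibroblasts pretreated with compound at 0.25–20 μM final, five doses, technical triplicates. MMS plates had compound added 24 h before MMS, after a shift to serum-free DMEM+2% BSA. Significance came from a global variance t-test over two independent runs.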
# [7] = 60 μM, in liquid, wild type, with FuDR, 1.0 × 10^9 bacteria/ml, read-out: relative change of mean lifespan vs control, Trial 1
# [8] = 60 μM, in liquid, wild type, with FuDR, 2.5 × 10^9 bacteria/ml, read-out: relative change of mean lifespan vs control, Trial 2
# [9] = 60 μM, on plate, CF512 temperature-sensitive sterile animals, without FuDR, 2.0 × 10^10 bacteria/ml, read-out: relative change of mean lifespan vs control, Trial 3
# [10] = Assay 2(z), 1.0 × 10^9 bacteria/ml, wild type + FuDR (2012 July), read-out: Lifespan assay in liquid
# [11] = Assay 3(aa), 2.5 × 10^9 bacteria/ml, wild type + FuDR, read-out: Lifespan assay in liquid
# [12] = Assay 4(ab), 2.0 × 10^10 bacteria/ml, CF512 worms, no FuDR, read-out: Lifespan assay on plates
# [13] = read-out: Experiment 1, H2A.X-P DNA damage foci staining (no H2O2 stress treatment), at 10 uM
# [14] = read-out: Experiment 2, H2A.X-P DNA damage foci staining (no H2O2 stress treatment), at 10 uM
# [15] = read-out: Experiment 2, H2A.X-P DNA damage foci staining (under H2O2 stress treatment), at 10 uM
# [16] = read-out: Experiment 2, TP53BP1-P DNA damage foci staining (no H2O2 stress treatment), at 10 uM
# [17] = read-out: Experiment 2, TP53BP1-P DNA damage foci staining (under H2O2 stress treatment), at 10 uM
# [18] = WI-38 cells, 10 μM, (*) = compromised ability to protect cells from H2O2, could be due to stability issue
# [19] = asterisks indicate the loss of the ability to protect cells from H2O2 over time
# [20] = read-out: Est. ED50, dose response 0.6-20 μM, H2O2-resistance
# [21] = Exp. 1, WI-38 cells, read-out: Exp. 1, under MMS stress treatment, at 10 uM (fold change)
# [22] = Exp. 2, WI-38 cells, read-out: Exp. 2, under MMS stress treatment, at 10 uM (fold change)
# [23] = score in summary of 38 core set hits
smiles,measurement,setting,value
O=C(NCc1cccnc1)/C(=C\c1ccc(Br)cc1)S(=O)(=O)c1ccccc1 [Gr-7B],ILS at 60 µM,[1]; [7],1.3%
same,ILS at 60 µM,[1]; [8],3.5%
same,ILS at 60 µM,[1]; [9],14.9%
same,ILS at 66 µM,[1]; [10],1.3%
same,ILS at 66 µM,[1]; [11],3.5%
same,ILS at 66 µM,[1]; [12],14.9%
same,O = Life span- extending scores in worms,[1],0
same,M = Lifespan-extending scores in worms,[1],0
same,activity at 10 µM,[2]; [13],695%
same,activity at 10 µM,[2]; [14],348%
same,activity at 10 µM,[2]; [15],74%
same,activity at 10 µM,[2]; [16],31.3%
same,activity at 10 µM,[2]; [17],4.2%
same,P = Potential DNA-damaging,[2],0
same,R = Potential DNA damaging,[2],0
same,L = PARP inhibition,[3],0
same,H2O2-resistant,[4]; [18],YES (*)
same,"No H2O2 stress treatment, at 10 uM (fold change)",[4]; WI-38 cells,0.56 fold change
same,Assay 1: H2O2-resistant,[4],YES
same,H2O2-resistant,[4]; [19],YES (*)
same,EC50,[4]; [20],24.7 µM
same,M = Huntington's poly-Q toxicity attenuation,[5],0
same,K = Huntington's poly-Q toxicity attenuation,[5],0
same,fold induction at 10 µM,[6]; [21],0.39
same,fold induction at 10 µM,[6]; [22],1.45
same,B = MMS resistant,[6]; [23],0
same,B = MMS resistant,[6]; summary score,0
same,D = Triple resistant,[6]; summary score,0
O=C(c1ccc([N+](=O)[O-])o1)N1CCc2ccccc21 [O13],"relative change of mean lifespan vs control, Trial 6 (confirmative)","[1]; 60 μM, on plate, temperature-sensitive sterile animals, without FuDR, 1.0 × 10^11 bacteria/ml",+15.3%
same,"relative change of mean lifespan vs control, Trial 5 (confirmative)","[1]; 60 μM, on plate, temperature-sensitive sterile animals, without FuDR, 2.0 × 10^10 bacteria/ml",+8.4%
same,"Lifespan, average increase",[1]; 4 or more trials,18.2%
same,ILS at 60 µM,[1]; [7],32.7%
same,ILS at 60 µM,[1]; [8],10.3%
same,ILS at 60 µM,"[1]; 60 μM, on plate, CF512 temperature-sensitive sterile animals, without FuDR, 1.0 × 10^11 bacteria/ml, read-out: relative change of mean lifespan vs control, Trial 4",15%
same,ILS at 60 µM,[1]; [9],27.3%
same,ILS at 66 µM,[1]; [10],32.7%
same,ILS at 66 µM,[1]; [11],10.3%
same,ILS at 66 µM,[1]; [12],27.3%
same,ILS at 66 µM,"[1]; Assay 5(ac), 1.0 × 10^11 bacteria/ml, CF512 worms, no FuDR, read-out: Lifespan assay on plates",15%
same,ILS at 66 µM,"[1]; Assay 6(ad), 2.0 × 10^10 bacteria/ml, CF512 worms, no FuDR, read-out: Lifespan assay on plates",8.4%
same,ILS at 66 µM,"[1]; Assay 7(ae), 1.0 × 10^11 bacteria/ml, CF512 worms, no FuDR, read-out: Lifespan assay on plates",15.3%
same,Extension of C. elegans' lifespan (qualitative),"[1]; in at least 3 to 4 trials, group range ~10% to ~50%",could extend animal's lifespan
same,O = Life span- extending scores in worms,[1],2 (2 for observed in more than 2 trials)
same,M = Lifespan-extending scores in worms,[1],2 (2 for observed in more than 2 trials)
same,"Lifespan, mean (FIG. 6B)","[1]; temperature-sensitive sterile rollers, on plate, without FuDR, 25° C. then ~22° C., control 18.4±0.4",23.4±0.4
same,Lifespan increase (FIG. 6A),"[1]; wild-type, in liquid, with FuDR, 20° C., ~60 μM",~33.2%
same,"Lifespan, mean±SD (FIG. 6A)","[1]; wild-type, in liquid, with FuDR, 20° C., ~60 μM, control 21.1±0.5",28.1±1.1
same,activity at 10 µM,[2]; [13],145%
same,activity at 10 µM,[2]; [14],98.3%
same,activity at 10 µM,[2]; [15],152%
same,activity at 10 µM,[2]; [16],238%
same,activity at 10 µM,[2]; [17],673%
same,P = Potential DNA-damaging,[2],0
same,R = Potential DNA damaging,[2],0
same,L = PARP inhibition,[3],0
same,H2O2-resistant,[4]; [18],YES
same,"No H2O2 stress treatment, at 10 uM (fold change)",[4]; WI-38 cells,1.09 fold change
same,Assay 1: H2O2-resistant,[4],YES
same,H2O2-resistant,[4]; [19],YES
same,EC50,"[4]; derived from dose response curves, 0.6-20 uM, H2O2-resistance of WI-38 cells",10.1 µM
same,EC50,[4]; [20],10.1 µM
same,M = Huntington's poly-Q toxicity attenuation,[5],0
same,K = Huntington's poly-Q toxicity attenuation,[5],0
same,fold induction at 10 µM,[6]; [21],1.11
same,fold induction at 10 µM,[6]; [22],2.24
same,Assay 3: MMS-resistant,"[6]; YES/NO, * indicates partial",YES
same,Assay 5: Triple resistant,"[6]; YES/NO, H2O2, cadmium and MMS",YES
same,B = MMS resistant,[6]; [23],0
same,B = MMS resistant,[6]; summary score,1
same,D = Triple resistant,[6]; summary score,2
